Assay results published in ChEMBL document CHEMBL1201862, “PubChem BioAssay data set” (2004).
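1) Cells in 96-well plates. 2) Compound, 48 h, 5 concentrations. 3) Linear interpolation between surrounding doses. 4) Unreached endpoint = highest concentration. GI50 is the concentration that inhibits growth by half.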 Activity calls are given as the source filed them. Cut-off read from the data, not from the text of the source: active = GI50 up to about 1.1 µM and inactive = higher.

Key:
Assay in all cases: NCI tumour cell line growth inhibition, 48 h
OVCAR-4 = system: OVCAR-4
RPMI-8226 = system: RPMI-8226
OVCAR-5 = system: OVCAR-5
KM12 = system: KM12
SK-MEL-28 = system: SK-MEL-28
U-251 = system: U-251
HCC 2998 = system: HCC 2998
TK-10 = system: TK-10
LOX IMVI = system: LOX IMVI
OVCAR-3 = system: OVCAR-3
CAKI-1 = system: CAKI-1
SF-539 = system: SF-539
Malme-3M = system: Malme-3M
COLO 205 = system: COLO 205
M14 = system: M14
HCT-116 = system: HCT-116
SR = system: SR

SMILES | GI50 (OVCAR-4) | GI50 (RPMI-8226) | GI50 (OVCAR-5) | GI50 (KM12) | GI50 (SK-MEL-28) | GI50 (U-251) | GI50 (HCC 2998) | GI50 (TK-10) | GI50 (LOX IMVI) | GI50 (OVCAR-3) | GI50 (CAKI-1) | GI50 (SF-539) | GI50 (Malme-3M) | GI50 (COLO 205) | GI50 (M14) | GI50 (HCT-116) | GI50 (SR)
Cc1ccc(S(=O)(=O)N(/N=C/C=C/c2ccccc2)c2nnc(-c3ccccc3)c(-c3ccccc3)n2)cc1 | 9.82 µM (inactive) | 11.3 µM (inactive) | 41.2 µM (inactive) | 23 µM (inactive) | 26.3 µM (inactive) | 32.1 µM (inactive) | 13.3 µM (inactive) | 24.7 µM (inactive) | 21.5 µM (inactive) | 20.1 µM (inactive) | 17.9 µM (inactive) | 16.1 µM (inactive) | 30 µM (inactive) | 16.9 µM (inactive) | 20.8 µM (inactive) |  | 
CSc1snc2sc3c(Cl)nnnc3c12 | 14.8 µM (inactive) | 15.6 µM (inactive) | 17.2 µM (inactive) | 16.4 µM (inactive) | 10.6 µM (inactive) | 15.1 µM (inactive) | 6.01 µM (inactive) | 16.9 µM (inactive) | 3.12 µM (inactive) | 2.43 µM (inactive) | 4.42 µM (inactive) | 17.8 µM (inactive) | 11.4 µM (inactive) | 10.5 µM (inactive) | 12.6 µM (inactive) | 16 µM (inactive) | 
O=S(=O)(O)C(O)/C=C/c1ccccc1 (stereo unspecified) | > 100 µM (inactive) |  | > 100 µM (inactive) | > 100 µM (inactive) | > 100 µM (inactive) | > 100 µM (inactive) | > 100 µM (inactive) | > 100 µM (inactive) | 49.3 µM (inactive) | > 100 µM (inactive) | > 100 µM (inactive) |  | > 100 µM (inactive) | > 100 µM (inactive) | > 100 µM (inactive) | 78.5 µM (inactive) | 26.6 µM (inactive)
O=C1NC(=O)C(C(=O)C(=O)Nc2ccc(Cl)cc2Cl)C(=O)N1 | > 100 µM (inactive) | > 100 µM (inactive) | > 100 µM (inactive) | 93.1 µM (inactive) |  | > 100 µM (inactive) | > 100 µM (inactive) | > 100 µM (inactive) |  | > 100 µM (inactive) | > 100 µM (inactive) | > 10 µM (inactive) | > 100 µM (inactive) | > 100 µM (inactive) | > 100 µM (inactive) | > 100 µM (inactive) | 
COc1cccc(/C=C(\NC(C)=O)c2nc3cc(Cl)ccc3[nH]2)c1 | > 100 µM (inactive) |  | > 100 µM (inactive) | > 100 µM (inactive) | > 100 µM (inactive) | > 100 µM (inactive) | > 100 µM (inactive) | > 100 µM (inactive) |  | > 100 µM (inactive) | > 100 µM (inactive) | > 100 µM (inactive) | > 100 µM (inactive) | > 100 µM (inactive) | > 100 µM (inactive) |  | > 100 µM (inactive)
O=C(Nc1cccc(Cc2cccc(NC(=O)c3ccccc3)c2)c1)c1ccccc1 | 6.79 µM (inactive) |  | > 100 µM (inactive) | > 100 µM (inactive) | 41.7 µM (inactive) | 20.1 µM (inactive) | > 100 µM (inactive) | > 100 µM (inactive) | > 100 µM (inactive) | 26.9 µM (inactive) | 16.9 µM (inactive) | 12.6 µM (inactive) | 23.3 µM (inactive) | > 100 µM (inactive) | 55.1 µM (inactive) | 50.6 µM (inactive) | > 100 µM (inactive)
N#CC1=C(O)NC(O)=C(C#N)C1c1ccc(C2C(C#N)=C(O)NC(O)=C2C#N)cc1 | > 100 µM (inactive) | > 100 µM (inactive) |  | > 100 µM (inactive) | > 100 µM (inactive) | > 100 µM (inactive) | > 100 µM (inactive) | > 100 µM (inactive) | 35.2 µM (inactive) | > 100 µM (inactive) | > 100 µM (inactive) | > 100 µM (inactive) | > 100 µM (inactive) | 26.8 µM (inactive) | > 100 µM (inactive) | > 100 µM (inactive) | 
O=C(COc1ccc2c(=O)cc(-c3ccccc3)oc2c1)N1CCN(c2ccccc2)CC1 |  | 14.2 µM (inactive) | 34.6 µM (inactive) | 60.5 µM (inactive) | 49.8 µM (inactive) | 38.5 µM (inactive) | 33.1 µM (inactive) | 44.6 µM (inactive) | 57.3 µM (inactive) | 42.9 µM (inactive) |  | 71.1 µM (inactive) | 51.6 µM (inactive) | 37 µM (inactive) | 76.6 µM (inactive) | 71.8 µM (inactive) | 
CSc1nc(NC2OC(COC(C)=O)C(OC(C)=O)C(OC(C)=O)C2OC(C)=O)c(/N=C/C=N/c2c(NC3OC(COC(C)=O)C(OC(C)=O)C(OC(C)=O)C3OC(C)=O)nc(SC)[nH]c2=O)c(=O)[nH]1 (stereo unspecified) | > 100 µM (inactive) | > 100 µM (inactive) | > 100 µM (inactive) | > 100 µM (inactive) | > 100 µM (inactive) | > 100 µM (inactive) | > 100 µM (inactive) | > 100 µM (inactive) | > 100 µM (inactive) | > 100 µM (inactive) |  | > 100 µM (inactive) | > 100 µM (inactive) | > 100 µM (inactive) | > 100 µM (inactive) | > 100 µM (inactive) | > 100 µM (inactive)
CC1(Br)C(=O)NC(=O)N(C2CC(N=[N+]=[N-])C(CO)O2)C1N=[N+]=[N-] (stereo unspecified) | > 100 µM (inactive) | 92.5 µM (inactive) | > 100 µM (inactive) | > 100 µM (inactive) | > 100 µM (inactive) | > 100 µM (inactive) | > 100 µM (inactive) | > 100 µM (inactive) | > 100 µM (inactive) | > 100 µM (inactive) | 70.8 µM (inactive) | > 100 µM (inactive) | 97.9 µM (inactive) | > 100 µM (inactive) | > 100 µM (inactive) |  | 
COc1ccc(/C=c2/sc3n(c2=O)NC2(CCC(C)CC2)NN=3)cc1 (stereo unspecified) | 52.5 µM (inactive) |  | > 100 µM (inactive) | > 100 µM (inactive) | > 100 µM (inactive) | > 100 µM (inactive) | > 100 µM (inactive) | > 100 µM (inactive) | > 100 µM (inactive) | 60.8 µM (inactive) | > 100 µM (inactive) | > 100 µM (inactive) | > 100 µM (inactive) | > 100 µM (inactive) | > 100 µM (inactive) | > 100 µM (inactive) | > 100 µM (inactive)
CNCC(=O)Nc1ccc2c(c1)C(=O)c1ccc(NC(=O)CNC)cc1C2=O | 1.91 µM (inactive) |  | 17.5 µM (inactive) | 0.767 µM (active) | 2.54 µM (inactive) | 2.7 µM (inactive) | 4.72 µM (inactive) | 17.3 µM (inactive) | 1.68 µM (inactive) | 3.05 µM (inactive) | 5.65 µM (inactive) | 3.1 µM (inactive) | 3.27 µM (inactive) | 2.37 µM (inactive) | 2.55 µM (inactive) | 1.81 µM (inactive) | 1.96 µM (inactive)
CC1(c2ccccc2Cl)C(C#N)C(=O)NC(=O)C1C#N (stereo unspecified) | 33.3 µM (inactive) | 22.7 µM (inactive) | 91 µM (inactive) | > 10 µM (inactive) | 37.8 µM (inactive) |  | 41.3 µM (inactive) | > 100 µM (inactive) | 40.1 µM (inactive) | 17.8 µM (inactive) | > 100 µM (inactive) | 34.8 µM (inactive) | 35.5 µM (inactive) | 45 µM (inactive) | 42.6 µM (inactive) |  | 
